Laboratory results published in patent US10760110B2, “Antibiotic testing and screening system” (priority 2017, dated 2020).
Converted amounts (≈) assume the structure as drawn. Where two headings read alike, the source gives them in different places.

Tests used:
Details in all cases: Klebsiella pneumoniae
[1] = tested on: K. pneumoniae NVT1001 strains with carbapenemase plasmids; test: Etest MIC of β-lactams, OmpK35/36 loss, ΔramR and/or carbapenemase (Table 9); format: cell-based, Klebsiella pneumoniae
Method in brief: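 Cloned resistance genes in pACYC177 or pACYC184 were electroporated into K. pneumoniae NVT1001. MICs were determined by Etest and rounded up to the next two-fold value. Ceftazidime and cefotaxime against the blaOXA-48 construct were also tested by CLSI broth microdilution, with breakpoints from CLSI 2017 (cephalothin CLSI 2015, moxifloxacin EUCAST 2017).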

[2] = tested on: K. pneumoniae NVT1001 ΔramRΔompK35/36 mutant and its revertants; test: Etest MIC, ΔramRΔompK35/36 mutant and its revertants (Table 7); format: cell-based
[3] = tested on: K. pneumoniae NVT1001 and its ΔompK35/36 and/or ΔramR mutants; test: Etest MIC, OmpK35/36 loss and AcrAB-TolC overexpression (ΔramR) strains (Table 6); format: cell-based, Klebsiella pneumoniae
Method in brief: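 Etest MICs against K. pneumoniae NVT1001 and its ΔompK35/36 and/or ΔramR mutants, rounded up to the next two-fold value. For NVT1001 carrying pACYC177-blaOXA-48, ceftazidime and cefotaxime MICs by CLSI broth microdilution, interpreted with CLSI 2017 breakpoints.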

For `CC(=O)OCC1=C(C(=O)O)N2C(=O)[C@@H](NC(=O)Cc3cccs3)[C@H]2SC1` [Cephalothin], the MIC ([1]; IMP-8 on pACYC177, WT (NVT1001), read-out: MIC) was over 256 µg/mL, the MIC ([1]; IMP-8 on pACYC177, Δ35 (ΔompK35 mutant)) was over 256 µg/mL and the MIC ([1]; IMP-8 on pACYC177, Δ35/36 (ΔompK35/36 mutant)) was over 256 µg/mL. The MIC ([1]; IMP-8 on pACYC177, Δ36 (ΔompK36 mutant)) was over 256 µg/mL, the MIC ([1]; IMP-8 on pACYC177, ΔramR mutant) was over 256 µg/mL and the MIC ([1]; IMP-8 on pACYC177, ΔramRΔ35 (ΔramRΔompK35 mutant)) was over 256 µg/mL. For the same compound, the MIC ([1]; IMP-8 on pACYC177, ΔramRΔ35/36 (ΔramRΔompK35/36 mutant)) was over 256 µg/mL, the MIC ([1]; IMP-8 on pACYC177, ΔramRΔ36 (ΔramRΔompK36 mutant)) was over 256 µg/mL and the MIC ([1]; KPC-2 on pACYC177, WT (NVT1001), read-out: MIC) was over 256 µg/mL. The MIC ([1]; KPC-2 on pACYC177, Δ35 (ΔompK35 mutant)) was over 256 µg/mL, the MIC ([1]; KPC-2 on pACYC177, Δ35/36 (ΔompK35/36 mutant)) was over 256 µg/mL and the MIC ([1]; KPC-2 on pACYC177, Δ36 (ΔompK36 mutant)) was over 256 µg/mL. The MIC ([1]; KPC-2 on pACYC177, ΔramR mutant) was over 256 µg/mL, the MIC ([1]; KPC-2 on pACYC177, ΔramRΔ35 (ΔramRΔompK35 mutant)) was over 256 µg/mL and the MIC ([1]; KPC-2 on pACYC177, ΔramRΔ35/36 (ΔramRΔompK35/36 mutant)) was over 256 µg/mL. It also gave an MIC ([1]; KPC-2 on pACYC177, ΔramRΔ36 (ΔramRΔompK36 mutant)) of over 256 µg/mL, an MIC ([1]; KPC-3 on pACYC177, WT (NVT1001), read-out: MIC) of over 256 µg/mL and an MIC ([1]; KPC-3 on pACYC177, Δ35 (ΔompK35 mutant)) of over 256 µg/mL. For the same compound, the MIC ([1]; KPC-3 on pACYC177, Δ35/36 (ΔompK35/36 mutant)) was over 256 µg/mL, the MIC ([1]; KPC-3 on pACYC177, Δ36 (ΔompK36 mutant)) was over 256 µg/mL and the MIC ([1]; KPC-3 on pACYC177, ΔramR mutant) was over 256 µg/mL. For the same compound, the MIC ([1]; KPC-3 on pACYC177, ΔramRΔ35 (ΔramRΔompK35 mutant)) was over 256 µg/mL, the MIC ([1]; KPC-3 on pACYC177, ΔramRΔ35/36 (ΔramRΔompK35/36 mutant)) was over 256 µg/mL and the MIC ([1]; KPC-3 on pACYC177, ΔramRΔ36 (ΔramRΔompK36 mutant)) was over 256 µg/mL. For the same compound, the MIC ([1]; NDM-1 on pACYC177, WT (NVT1001), read-out: MIC) was over 256 µg/mL, the MIC ([1]; NDM-1 on pACYC177, Δ35 (ΔompK35 mutant)) was over 256 µg/mL and the MIC ([1]; NDM-1 on pACYC177, Δ35/36 (ΔompK35/36 mutant)) was over 256 µg/mL. It also gave an MIC ([1]; NDM-1 on pACYC177, Δ36 (ΔompK36 mutant)) of over 256 µg/mL, an MIC ([1]; NDM-1 on pACYC177, ΔramR mutant) of over 256 µg/mL and an MIC ([1]; NDM-1 on pACYC177, ΔramRΔ35 (ΔramRΔompK35 mutant)) of over 256 µg/mL. For the same compound, the MIC ([1]; NDM-1 on pACYC177, ΔramRΔ35/36 (ΔramRΔompK35/36 mutant)) was over 256 µg/mL, the MIC ([1]; NDM-1 on pACYC177, ΔramRΔ36 (ΔramRΔompK36 mutant)) was over 256 µg/mL and the MIC ([1]; OXA-48 on pACYC177, WT (NVT1001), read-out: MIC) was 256 µg/mL. It also gave an MIC ([1]; OXA-48 on pACYC177, Δ35 (ΔompK35 mutant)) of 256 µg/mL, an MIC ([1]; OXA-48 on pACYC177, Δ35/36 (ΔompK35/36 mutant)) of over 256 µg/mL and an MIC ([1]; OXA-48 on pACYC177, Δ36 (ΔompK36 mutant)) of over 256 µg/mL. It also gave an MIC ([1]; OXA-48 on pACYC177, ΔramR mutant) of over 256 µg/mL, an MIC ([1]; OXA-48 on pACYC177, ΔramRΔ35 (ΔramRΔompK35 mutant)) of over 256 µg/mL and an MIC ([1]; OXA-48 on pACYC177, ΔramRΔ35/36 (ΔramRΔompK35/36 mutant)) of over 256 µg/mL. It also gave an MIC ([1]; OXA-48 on pACYC177, ΔramRΔ36 (ΔramRΔompK36 mutant)) of over 256 µg/mL, an MIC ([1]; VIM-1 on pACYC177, WT (NVT1001), read-out: MIC) of over 256 µg/mL and an MIC ([1]; VIM-1 on pACYC177, Δ35 (ΔompK35 mutant)) of over 256 µg/mL. For the same compound, the MIC ([1]; VIM-1 on pACYC177, Δ35/36 (ΔompK35/36 mutant)) was over 256 µg/mL, the MIC ([1]; VIM-1 on pACYC177, Δ36 (ΔompK36 mutant)) was over 256 µg/mL and the MIC ([1]; VIM-1 on pACYC177, ΔramR mutant) was over 256 µg/mL. The MIC ([1]; VIM-1 on pACYC177, ΔramRΔ35 (ΔramRΔompK35 mutant)) was over 256 µg/mL, the MIC ([1]; VIM-1 on pACYC177, ΔramRΔ35/36 (ΔramRΔompK35/36 mutant)) was over 256 µg/mL and the MIC ([1]; VIM-1 on pACYC177, ΔramRΔ36 (ΔramRΔompK36 mutant)) was over 256 µg/mL. For the same compound, the MIC ([1]; no supplemental plasmid, WT (NVT1001), read-out: MIC) was 8 µg/mL, the MIC ([1]; no supplemental plasmid, Δ35 (ΔompK35 mutant)) was 8 µg/mL and the MIC ([1]; no supplemental plasmid, Δ35/36 (ΔompK35/36 mutant)) was 256 µg/mL. It also gave an MIC ([1]; no supplemental plasmid, Δ36 (ΔompK36 mutant)) of 16 µg/mL, an MIC ([1]; no supplemental plasmid, ΔramR mutant) of 64 µg/mL and an MIC ([1]; no supplemental plasmid, ΔramRΔ35 (ΔramRΔompK35 mutant)) of 64 µg/mL. It also gave an MIC ([1]; no supplemental plasmid, ΔramRΔ35/36 (ΔramRΔompK35/36 mutant)) of over 256 µg/mL, an MIC ([1]; no supplemental plasmid, ΔramRΔ36 (ΔramRΔompK36 mutant)) of over 256 µg/mL and an MIC ([2]; ΔramRΔompK35/36::ompK35/36 revertant) of 64 µg/mL. For the same compound, the MIC ([2]; ΔramRΔompK35/36::ompK35 revertant) was over 256 µg/mL, the MIC ([2]; ΔramRΔompK35/36::ompK36 revertant) was 128 µg/mL and the MIC ([2]; ΔramRΔompK35/36::ramR revertant) was over 256 µg/mL. For the same compound, the MIC ([2]; ΔramRΔompK35/36::ramR::ompK35/36 revertant) was 8 µg/mL, the MIC ([2]; ΔramRΔompK35/36::ramR::ompK35 revertant) was 32 µg/mL and the MIC ([2]; ΔramRΔompK35/36::ramR::ompK36 revertant) was 8 µg/mL. For the same compound, the MIC ([2]; ΔramRΔompK35/36 mutant) was over 256 µg/mL, the MIC ([3]; WT, NVT1001, read-out: MIC) was 8 µg/mL (≈ 20.2 µM) and the MIC ([3]; Δ35, ΔompK35 mutant) was 8 µg/mL (≈ 20.2 µM). The MIC ([3]; Δ35/36, ΔompK35/36 mutant) was 256 µg/mL (≈ 646 µM), the MIC ([3]; Δ36, ΔompK36 mutant) was 16 µg/mL (≈ 40.4 µM) and the MIC ([3]; ΔramR mutant) was 64 µg/mL (≈ 161 µM). For the same compound, the MIC ([3]; ΔramRΔ35, ΔramRΔompK35 mutant) was 64 µg/mL (≈ 161 µM), the MIC ([3]; ΔramRΔ35/36, ΔramRΔompK35/36 mutant) was over 256 µg/mL and the MIC ([3]; ΔramRΔ36, ΔramRΔompK36 mutant) was over 256 µg/mL.
